Assay results reported in the supplement of paper PMC10307832.

compound: Cn1c(=O)n(-c2ccc(C(C)(C)C#N)cc2)c2c3cc(-c4cnc5ccccc5c4)ccc3ncc21 [Dactolisib] + O=C(c1cc(Cc2n[nH]c(=O)c3ccccc23)ccc1F)N1CCN(C(=O)C2CC2)CC1 [Olaparib] (partner 8 µM); test: relative viability (nuclei count vs DMSO), 5 days (fraction); higher = more cells survive; details: first compound 0.002 µM
In short: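 After 5 days of treatment, lung cancer cells in 1536-well plates were fixed and stained in a single step (final 0.05% Triton X-100, 1% formaldehyde, 1 ug/ml Hoechst) and their nuclei counted on 4× images. Treatment had been applied by pin tool the day after seeding as one drug alone or as a fixed anchor-drug dose with five library-drug doses (not always all listed) in √10 steps. Relative viability is the nuclei count of treated wells divided by that of vehicle wells, and values are medians of duplicate plates.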

| Cell Line | relative viability |
| --- | --- |
| NCI-H1648 | 0.998 |
| SK-MES-1 | 0.739 |
| H3255 | 0.559 |
| COR-L23 | 0.345 |
| COR-L 105 | 0.629 |
| IA-LM | 0.85 |
| LOU-NH91 | 0.832 |
| ChaGo-K-1 | 0.404 |
| NCI-H2170 | 0.535 |
| NCI-H2405 | 0.866 |
| HOP-62 | 0.378 |
| HCC-44 | 0.969 |
| A549 | 0.286 |
| NCI-H522 | 0.691 |
| LU99A | 0.208 |
| BEN | 0.988 |
| HARA | 1.23 |
| SW 900 | 1.22 |
| HCC-78 | 0.856 |
| NCI-H322M | 0.752 |
| LCLC-97TM1 | 0.383 |
| NCI-H2009 | 0.656 |
| A-427 | 0.877 |
| NCI-H441 | 0.784 |
| NCI-H661 | 0.706 |

| Cell Line | relative viability |
| --- | --- |
| NCI-H1734 | 0.644 |
| NCI-H460 | 0.256 |
| NCI-H2347 | 0.693 |
| SW 1573 | 0.557 |
| NCI-H1395 | 0.439 |
| 201T | 0.833 |
| NCI-H1915 | 0.254 |
| HCC-827 | 0.601 |
| LXF-289 | 1.21 |
| NCI-H23 | 0.266 |
| NCI-H1299 | 1.01 |
| NCI-H647 | 0.54 |
| CAL-12T | 0.822 |
| NCI-H1651 | 0.187 |
| EPLC-272H | 0.807 |
| NCI-H2228 | 1.01 |
| NCI-H1792 | 0.427 |
| NCI-H1355 | 0.831 |
| NCI-H3122 | 0.564 |
| NCI-H1437 | 0.686 |
| NCI-H1755 | 0.987 |
| NCI-H2023 | 0.484 |
| HCC-15 | 0.957 |
| NCI-H1793 | 0.784 |
| PC-14 | 0.337 |

same assay, conditions: first compound 0.006325 µM

| Cell Line | relative viability |
| --- | --- |
| NCI-H2342 | 0.369 |
| NCI-H727 | 0.79 |
| NCI-H1650 | 0.704 |
| EBC-1 | 0.645 |
| NCI-H1703 | 0.292 |
| NCI-H1993 | 0.865 |
| SK-LU-1 | 0.406 |
| NCI-H838 | 0.657 |
| LCLC-103H | 0.743 |
| NCI-H520 | 0.308 |
| NCI-H2126 | 0.895 |
| EMC-BAC-2 | 0.433 |
| NCI-H2085 | 0.778 |
| Calu-6 | 0.642 |
| HCC-366 | 0.356 |
| NCI-H1666 | 0.683 |
| NCI-H596 | 0.719 |
| LK-2 | 0.836 |
| NCI-H2087 | 0.474 |
| NCI-H1648 | 0.78 |
| SK-MES-1 | 0.685 |
| H3255 | 0.56 |
| COR-L23 | 0.351 |

| Cell Line | relative viability |
| --- | --- |
| COR-L 105 | 0.744 |
| IA-LM | 0.729 |
| LOU-NH91 | 0.901 |
| ChaGo-K-1 | 0.419 |
| NCI-H2170 | 0.533 |
| NCI-H2405 | 0.86 |
| HOP-62 | 0.464 |
| HCC-44 | 1.03 |
| A549 | 0.302 |
| NCI-H522 | 0.664 |
| LU99A | 0.232 |
| BEN | 0.939 |
| HARA | 0.858 |
| SW 900 | 0.853 |
| HCC-78 | 0.94 |
| NCI-H322M | 0.789 |
| LCLC-97TM1 | 0.416 |
| NCI-H2009 | 0.692 |
| A-427 | 0.675 |
| NCI-H441 | 0.571 |
| NCI-H661 | 0.656 |
| NCI-H1734 | 0.548 |
| NCI-H460 | 0.45 |

| Cell Line | relative viability |
| --- | --- |
| NCI-H2347 | 0.54 |
| SW 1573 | 0.324 |
| NCI-H1395 | 0.434 |
| 201T | 0.824 |
| NCI-H1915 | 0.253 |
| HCC-827 | 0.611 |
| LXF-289 | 0.986 |
| NCI-H23 | 0.254 |
| NCI-H1299 | 0.997 |
| NCI-H647 | 0.349 |
| CAL-12T | 0.662 |
| NCI-H1651 | 0.173 |
| EPLC-272H | 0.486 |
| NCI-H2228 | 0.486 |
| NCI-H1792 | 0.319 |
| NCI-H1355 | 0.684 |
| NCI-H3122 | 0.557 |
| NCI-H1437 | 0.6 |
| NCI-H1755 | 0.886 |
| NCI-H2023 | 0.43 |
| HCC-15 | 0.699 |
| NCI-H1793 | 0.299 |
| PC-14 | 0.505 |

same assay, conditions: first compound 0.02 µM

| Cell Line | relative viability |
| --- | --- |
| NCI-H2342 | 0.501 |
| NCI-H727 | 0.874 |
| NCI-H1650 | 0.722 |
| EBC-1 | 0.648 |
| NCI-H1703 | 0.389 |
| NCI-H1993 | 0.827 |
| SK-LU-1 | 0.539 |
| NCI-H838 | 0.43 |
| LCLC-103H | 0.647 |
| NCI-H520 | 0.284 |
| NCI-H2126 | 0.878 |
| EMC-BAC-2 | 0.464 |
| NCI-H2085 | 0.689 |
| Calu-6 | 0.688 |
| HCC-366 | 0.38 |
| NCI-H1666 | 0.874 |
| NCI-H596 | 0.527 |
| LK-2 | 0.491 |
| NCI-H2087 | 0.631 |
| NCI-H1648 | 0.799 |
| SK-MES-1 | 0.531 |
| H3255 | 0.499 |

| Cell Line | relative viability |
| --- | --- |
| COR-L23 | 0.312 |
| COR-L 105 | 0.76 |
| IA-LM | 0.783 |
| LOU-NH91 | 0.886 |
| ChaGo-K-1 | 0.421 |
| NCI-H2170 | 0.601 |
| NCI-H2405 | 0.858 |
| HOP-62 | 0.542 |
| HCC-44 | 0.956 |
| A549 | 0.244 |
| NCI-H522 | 0.68 |
| LU99A | 0.216 |
| BEN | 1.08 |
| HARA | 0.898 |
| SW 900 | 0.689 |
| HCC-78 | 0.669 |
| NCI-H322M | 0.774 |
| LCLC-97TM1 | 0.319 |
| NCI-H2009 | 0.65 |
| A-427 | 0.707 |
| NCI-H441 | 0.597 |
| NCI-H661 | 0.771 |
